In ChEMBL document CHEMBL5365515, “PARP7 Inhibition: A Promising Pathway to Advancements in Cancer Therapy” (ACS Med Chem Lett, 2023) one finds EC50 data, which are given here for nine compounds.

In the test the target is T1, Protein mono-ADP-ribosyltransferase TIPARP (Homo sapiens, UniProt Q7Z3E1).
T1 sequence (Q7Z3E1 whole entry): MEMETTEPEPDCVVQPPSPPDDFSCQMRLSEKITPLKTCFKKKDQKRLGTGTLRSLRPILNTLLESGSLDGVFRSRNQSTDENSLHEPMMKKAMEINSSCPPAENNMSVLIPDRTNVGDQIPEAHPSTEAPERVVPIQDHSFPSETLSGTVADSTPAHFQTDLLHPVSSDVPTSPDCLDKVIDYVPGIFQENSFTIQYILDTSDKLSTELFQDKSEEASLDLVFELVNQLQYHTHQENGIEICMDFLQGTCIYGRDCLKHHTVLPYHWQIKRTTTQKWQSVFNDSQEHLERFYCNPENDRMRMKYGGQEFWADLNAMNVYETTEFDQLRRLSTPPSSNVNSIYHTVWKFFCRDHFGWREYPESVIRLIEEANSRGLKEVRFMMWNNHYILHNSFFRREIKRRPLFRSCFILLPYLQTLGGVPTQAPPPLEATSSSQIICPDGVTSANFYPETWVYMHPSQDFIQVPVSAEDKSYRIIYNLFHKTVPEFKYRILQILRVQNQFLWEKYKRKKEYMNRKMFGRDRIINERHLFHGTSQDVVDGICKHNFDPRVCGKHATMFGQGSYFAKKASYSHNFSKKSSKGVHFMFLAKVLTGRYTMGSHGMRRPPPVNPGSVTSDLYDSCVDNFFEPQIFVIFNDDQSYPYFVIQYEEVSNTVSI
Description: Inhibition of PARP7 in human NCI-H1373 cells assessed as increase in STAT1 phosphorylation at Tyr701 residue incubated for 48 hrs by LANCE Ultra TR-FRET assay. Format: cell-based. A general note: Time-resolved FRET reads energy transfer from a long-lived donor to a nearby acceptor.

For orientation: EC50 means the concentration that produces a half-maximal response. Consider `O=C(CCC1Cc2ccccc2N1c1cc(C(F)(F)F)c(=O)[nH]n1)N1CCN(c2ncc(C(F)(F)F)cn2)CC1` (centres undefined), for which the EC50 is 179 nM.
In the case of `O=C(CCCNc1cc(C(F)(F)F)c(=O)[nH]n1)N1CCN(c2ncc(C(F)(F)F)cn2)CC1`, the EC50 is 71.9 nM.
Under `CN(CCCC(=O)N1CCN(c2ncc(C(F)(F)F)cn2)CC1)c1cc(C(F)(F)F)c(=O)[nH]n1` stands 75.6 nM; under `O=C(CCCN(c1ccccc1)c1cc(C(F)(F)F)c(=O)[nH]n1)N1CCN(c2ncc(C(F)(F)F)cn2)CC1`, 74.1 nM.
Under `CCN(CCCC(=O)N1CCN(c2ncc(C(F)(F)F)cn2)CC1)c1cc(C(F)(F)F)c(=O)[nH]n1` stands 51.6 nM.
For `O=C(CC[C@@H]1CCCCN1c1cc(C(F)(F)F)c(=O)[nH]n1)N1CCN(c2ncc(C(F)(F)F)cn2)CC1` the value was 172 nM; for `O=C([C@@H](O)CCNc1cc(C(F)(F)F)c(=O)[nH]n1)N1CCN(c2ncc(C(F)(F)F)cn2)CC1`, 21.3 nM.
Take `O=C(CCCCc1cc(C(F)(F)F)c(=O)[nH]n1)N1CCN(c2ncc(C(F)(F)F)cn2)CC1`: the EC50 was 60.6 nM.
Under `O=C(CC[C@@H]1CCCN1c1cc(C(F)(F)F)c(=O)[nH]n1)N1CCN(c2ncc(C(F)(F)F)cn2)CC1` stands 9.31 nM.
